Where only a bound is given, the exact number is not on record here.

T1 sequence (P23458 866-1154): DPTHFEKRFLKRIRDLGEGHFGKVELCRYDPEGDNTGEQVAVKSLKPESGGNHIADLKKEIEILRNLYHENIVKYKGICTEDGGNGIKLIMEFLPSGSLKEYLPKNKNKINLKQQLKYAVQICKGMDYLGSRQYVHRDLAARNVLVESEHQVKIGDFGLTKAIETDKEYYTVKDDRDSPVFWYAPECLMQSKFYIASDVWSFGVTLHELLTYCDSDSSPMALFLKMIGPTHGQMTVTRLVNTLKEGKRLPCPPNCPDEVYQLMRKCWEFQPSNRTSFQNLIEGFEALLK

The experiment has as its target T1, human JAK1 (Homo sapiens, UniProt P23458).
T1 construct: catalytic domain, amino acids 866-1154; catalog number PV4774; purchased Invitrogen PV4774
Kind of experiment: JAK1 inhibition assay (polyGT substrate / Ulight-JAK1 peptide). In kind it is biochemical. Particulars: recombinant human JAK1 catalytic domain; polyGT or Ulight-JAK1 peptide assay. The protocol:
1.1 JAK1 Inhibition Assay
1.1.1 JAK1 Assay polyGT Substrate
After 45 min at 30° C., reactions are stopped by adding of 25 μL/well of 150 mM phosphoric acid. […] Plates are washed 6 times with 300 μL per well of a 75 mM phosphoric acid solution and the bottom of the plates is sealed. 40 μL/well of Microscint-20 is added, the top of the plates is sealed and readout is performed using the Topcount (Perkin Elmer). Kinase activity is calculated by subtracting counts per min (cpm) obtained in the presence of a positive control inhibitor (10 μM staurosporine) from cpm obtained in the presence of vehicle. The ability of a test compound to inhibit this activity is determined as:
Percentage inhibition=((cpm determined for sample with test compound present−cpm determined for sample with positive control inhibitor)divided by(cpm determined in the presence of vehicle−cpm determined for sample with positive control inhibitor))*100.
Dose dilution series are prepared for the compounds enabling the testing of dose-response effects in the JAK1 assay and the calculation of the IC50 for each compound.
1.1.2 JAK1 Ulight-JAK1 Peptide Assay
After 60 min at room temperature, reactions were stopped by adding 20 μL/well of detection mixture (1× detection buffer (Perkin Elmer, catalog number CR97-100C), 0.5 nM Europium-anti-phosphotyrosine (PT66) (Perkin Elmer, catalog number AD0068), 10 mM EDTA). […] Kinase activity was calculated by subtracting relative fluorescence units (RFU) obtained in the presence of a positive control inhibitor (10 μM staurosporine) from RFU obtained in the presence of vehicle. The ability of a test compound to inhibit this activity was determined as:
Percentage inhibition=((RFU determined for sample with test compound present−RFU determined for sample with positive control inhibitor)divided by(RFU determined in the presence of vehicle−RFU determined for sample with positive control inhibitor))*100.
Dose dilution series were prepared for the compounds enabling the testing of dose-response effects in the JAK1 assay and the calculation of the IC50 for the compound. Each compound is routinely tested at concentration of 20 μM followed by a 1/5 serial dilution, 10 points in a final concentration of 1% DMSO. […] The data are expressed as the average IC50 from the assays±standard error of the mean.
For orientation: IC50 means the midpoint of a concentration-inhibition curve. For `CCOC(=O)c1ccc(N(CC)c2cc3c(cn2)ncn3C)cc1` [Compound 7, 4-[Ethyl-(1-methyl-1H-imidazo[4,5-c]pyridin-6-yl)-amino]-benzoic acid ethyl ester], the IC50 was > 1000 nM.
As for `CCc1cc(-c2c(C)nn(C)c2C)ccc1N(C)c1cc2c(cn1)ncn2C` [Compound 138, N-(2-ethyl-4-(1,3,5-trimethyl-1H-pyrazol-4-yl)phenyl)-N,1-dimethyl-1H-imidazo[4,5-c]pyridin-6-amine], the half-inhibitory concentration (IC50) was in the range of 101 to 500 nM.
The same measure for `CCc1cc(-c2cn(C)cn2)ccc1N(C)c1cc2c(cn1)ncn2C` [Compound 145, N-(2-ethyl-4-(1-methyl-1H-imidazol-4-yl)phenyl)-N,1-dimethyl-1H-imidazo[4,5-c]pyridin-6-amine]: 0.01 to 100 nM; for `CCc1cc(CNC2CCS(=O)(=O)CC2)ccc1N(C)c1cc2c(cn1)ncn2C` [Compound 146, {4-[(1,1-Dioxo-hexahydrothiopyran-4-ylamino)-methyl]-2-ethyl-phenyl}-methyl-(1-methyl-1H-imidazo[4,5-c]pyridin-6-yl)-amine]: 0.01 to 100 nM; for `CCc1cc(C(=O)NC2CCCN(C)C2)ccc1N(C)c1cc2c(cn1)ncn2C` (stereo not drawn) [Compound 152, 3-ethyl-4-(methyl(1-methyl-1H-imidazo[4,5-c]pyridin-6-yl)amino)-N-(1-methylpiperidin-3-yl)benzamide]: 0.01 to 100 nM.
Under `CCc1cc(CNCC(C)(C)O)ccc1N(C)c1cc2c(cn1)ncn2C` [Compound 169, 1-(3-ethyl-4-(methyl(1-methyl-1H-imidazo[4,5-c]pyridin-6-yl)amino)benzylamino)-2-methylpropan-2-ol] stands 0.01 to 100 nM.
The same measure for `CCc1cc(C(=O)NC2CN(C(=O)OC(C)(C)C)C2)ccc1N(C)c1cc2c(cn1)ncn2C` [Compound 170, tert-butyl 3-(3-ethyl-4-(methyl(1-methyl-1H-imidazo[4,5-c]pyridin-6-yl)amino)benzamido)azetidine-1-carboxylate]: 501 to 1000 nM.
For `CCc1cc(C(=O)NC2COC2)ccc1N(C)c1cc2c(cn1)ncn2C` [Compound 171, 3-ethyl-4-(methyl(1-methyl-1H-imidazo[4,5-c]pyridin-6-yl)amino)-N-(oxetan-3-yl)benzamide], the IC50 lay in the range of 101 to 500 nM.
For the compound `CCc1cc(Cn2ccnc2C)ccc1N(C)c1cc2c(cn1)ncn2C` [Compound 173, N-(2-Ethyl-4-((2-methyl-1H-imidazol-1-yl)methyl)phenyl)-N,1-dimethyl-1H-imidazo[4,5-c]pyridin-6-amine], the IC50 is 0.01 to 100 nM.
Turning to `CCc1cc(C(=O)NC2CNC2)ccc1N(C)c1cc2c(cn1)ncn2C` [Compound 174, N-(azetidin-3-yl)-3-ethyl-4-(methyl(1-methyl-1H-imidazo[4,5-c]pyridin-6-yl)amino)benzamide], the IC50 was in the range of 101 to 500 nM.
The same measure for `CCc1cc(C(=O)NC2CN(S(C)(=O)=O)C2)ccc1N(C)c1cc2c(cn1)ncn2C` [Compound 175, 3-Ethyl-4-(methyl(1-methyl-1H-imidazo[4,5-c]pyridin-6-yl)amino)-N-(1-(methylsulfonyl)azetidin-3-yl)benzamide]: 501 to 1000 nM; for `CCc1cc(C2CCN(C(=O)OC(C)(C)C)CC2)ccc1N(C)c1cc2c(cn1)ncn2C` [Compound 180, tert-butyl 4-(3-ethyl-4-(methyl(1-methyl-1H-imidazo[4,5-c]pyridin-6-yl)amino)phenyl)piperidine-1-carboxylate]: 101 to 500 nM.
The same measure for `CCc1cc(-c2n[nH]c(C)n2)ccc1N(C)c1cc2c(cn1)ncn2C` [Compound 183, N-(2-ethyl-4-(5-methyl-1H-1,2,4-triazol-3-yl)phenyl)-N,1-dimethyl-1H-imidazo[4,5-c]pyridin-6-amine]: 0.01 to 100 nM.
Under `CCc1cc(-c2cnc(N3CCOCC3)nc2)ccc1N(C)c1cc2c(cn1)ncn2C` [Compound 184, N-(2-Ethyl-4-(2-morpholinopyrimidin-5-yl)phenyl)-N,1-dimethyl-1H-imidazo[4,5-d]pyridin-6-amine] stands 101 to 500 nM.
With `CCc1cc(C(=O)O)ccc1N(C)c1cc2c(cn1)ncn2C` [Compound 185, 3-Ethyl-4-(methyl(1-methyl-1H-imidazo[4,5-c]pyridin-6-yl)amino)benzoic acid], the IC50 was > 1000 nM.
The same measure for `CCc1cc(C2CCNCC2)ccc1N(C)c1cc2c(cn1)ncn2C` [Compound 187, N-(2-Ethyl-4-(piperidin-4-yl)phenyl)-N,1-dimethyl-1H-imidazo[4,5-c]pyridin-6-amine]: 0.01 to 100 nM.
Under `CCc1cc(-c2n[nH]c(C3CC3)n2)ccc1N(C)c1cc2c(cn1)ncn2C` [Compound 188, N-(4-(5-cyclopropyl-1H-1,2,4-triazol-3-yl)-2-ethylphenyl)-N,1-dimethyl-1H-imidazo[4,5-c]pyridin-6-amine] stands 101 to 500 nM; under `CCNC(=O)NCc1ccc(N(C)c2cc3c(cn2)ncn3C)c(CC)c1` [Compound 192, 1-Ethyl-3-(3-ethyl-4-(methyl(1-methyl-1H-imidazo[4,5-c]pyridin-6-yl)amino)benzyl)urea], 0.01 to 100 nM; under `CC(NC(=O)OC(C)(C)C)c1ccc(N(C)c2cc3c(cn2)ncn3C)c(F)c1` (stereo not drawn) [Compound 268, tert-Butyl (1-(3-fluoro-4-(methyl(1-methyl-1H-imidazo[4,5-c]pyridin-6-yl)amino)phenyl)ethyl)carbamate], > 1000 nM.
The same measure for `CC(=O)N1CC(c2ccc(N(C)c3cc4c(cn3)ncn4C)c(F)c2)C1` [Compound 278, 1-(3-{3-Fluoro-4-[methyl-(1-methyl-M-imidazo[4,5-c]pyridin-6-yl)-amino]-phenyl}-azetidin-1-yl)-ethanone]: 501 to 1000 nM.
As for `CN(c1cc2c(cn1)ncn2C)c1ccc(C2CCN(C(=O)OC(C)(C)C)CC2)cc1F` [Compound 279, 4-{3-Fluoro-4-[methyl-(1-methyl-M-imidazo[4,5-c]pyridin-6-yl)-amino]-phenyl}-piperidine-1-carboxylic acid tert-butyl ester], the half-inhibitory concentration (IC50) was > 1000 nM.
The same measure for `CN(c1cc2c(cn1)ncn2C)c1ccc(C2=CCN(C(=O)OC(C)(C)C)CC2)cc1OC(F)F` [Compound 281, 4-{3-Difluoromethoxy-4-[methyl-(1-methyl-1H-imidazo[4,5-c]pyridin-6-yl)-amino]-phenyl}-3,6-dihydro-2H-pyridine-1-carboxylic acid tert-butyl ester]: 101 to 500 nM; for `Cn1cnc2cnc(N(CC3CC3)c3ccc(C#N)cc3F)cc21` [Compound 282, 4-[Cyclopropylmethyl-(1-methyl-1H-imidazo[4,5-c]pyridin-6-yl)-amino]-3-fluoro-benzonitrile]: > 1000 nM; for `CCc1ccccc1N(CCC#N)c1cc2c(cn1)ncn2C` [Compound 285, 3-[(2-Ethyl-phenyl)-(1-methyl-1H-imidazo[4,5-c]pyridin-6-yl)-amino]-propionitrile]: 101 to 500 nM.
Under `CN(c1cc2c(cn1)ncn2C)c1ccc(C2CCN(C(=O)OC(C)(C)C)CC2)cc1OC(F)F` [Compound 286, 4-{3-Difluoromethoxy-4-[methyl-(1-methyl-1H-imidazo[4,5-c]pyridin-6-yl)-amino]-phenyl}-piperidine-1-carboxylic acid tert-butyl ester] stands 101 to 500 nM; under `CCc1ccccc1N(C)c1cc2c(cn1)ncn2C1CC1` [Compound 296, 1-cyclopropyl-N-(2-ethylphenyl)-N-methyl-1H-imidazo[4,5-c]pyridin-6-amine], 501 to 1000 nM.
Under `CCc1ccccc1N(C)c1cc2c(cn1)ncn2CC` [Compound 297, 1-ethyl-N-(2-ethylphenyl)-N-methyl-1H-imidazo[4,5-c]pyridin-6-amine] stands 501 to 1000 nM.

(Values after patent publication US20130217664A1, “NOVEL COMPOUNDS USEFUL FOR THE TREATMENT OF DEGENERATIVE AND INFLAMMATORY DISEASES” (priority 2012, published 2013).)
